Experiments:
Test in all cases: Enzyme Assay
[1] = biological target: PIK3CG (human) (UniProt P48736)
[2] = biological target: PIK3CD (Human) (UniProt O00329)
[3] = biological target: PIK3CB (Human) (UniProt P42338)
Sequence of PIK3CB (Human) (P42338 whole entry, looked up): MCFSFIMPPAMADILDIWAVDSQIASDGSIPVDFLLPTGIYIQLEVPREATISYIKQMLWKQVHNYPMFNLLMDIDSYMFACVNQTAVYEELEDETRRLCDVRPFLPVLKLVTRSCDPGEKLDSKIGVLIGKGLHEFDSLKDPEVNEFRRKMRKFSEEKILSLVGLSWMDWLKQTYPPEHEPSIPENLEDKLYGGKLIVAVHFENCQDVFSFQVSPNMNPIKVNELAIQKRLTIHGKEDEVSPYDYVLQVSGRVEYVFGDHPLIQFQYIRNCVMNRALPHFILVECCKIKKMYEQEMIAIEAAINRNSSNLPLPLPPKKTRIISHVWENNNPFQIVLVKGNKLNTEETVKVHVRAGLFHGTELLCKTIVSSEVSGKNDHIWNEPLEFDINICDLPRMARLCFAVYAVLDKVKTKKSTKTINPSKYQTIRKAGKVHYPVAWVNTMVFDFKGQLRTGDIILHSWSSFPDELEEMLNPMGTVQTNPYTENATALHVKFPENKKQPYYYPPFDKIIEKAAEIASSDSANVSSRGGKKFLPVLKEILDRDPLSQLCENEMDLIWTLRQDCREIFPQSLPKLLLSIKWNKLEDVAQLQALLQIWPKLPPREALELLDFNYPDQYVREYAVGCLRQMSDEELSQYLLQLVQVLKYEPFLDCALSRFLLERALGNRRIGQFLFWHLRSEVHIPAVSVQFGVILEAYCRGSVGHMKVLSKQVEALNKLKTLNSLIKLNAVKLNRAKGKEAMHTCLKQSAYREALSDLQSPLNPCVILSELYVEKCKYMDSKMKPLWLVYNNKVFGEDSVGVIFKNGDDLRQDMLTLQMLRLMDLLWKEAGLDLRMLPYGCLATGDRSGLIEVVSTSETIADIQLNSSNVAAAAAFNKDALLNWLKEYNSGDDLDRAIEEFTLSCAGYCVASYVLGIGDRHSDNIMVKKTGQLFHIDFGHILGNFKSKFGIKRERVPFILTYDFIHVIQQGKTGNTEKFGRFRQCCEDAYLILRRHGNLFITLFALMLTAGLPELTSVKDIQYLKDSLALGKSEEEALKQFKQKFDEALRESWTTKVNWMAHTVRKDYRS

Sequence of PIK3CD (Human) (O00329 whole entry, looked up): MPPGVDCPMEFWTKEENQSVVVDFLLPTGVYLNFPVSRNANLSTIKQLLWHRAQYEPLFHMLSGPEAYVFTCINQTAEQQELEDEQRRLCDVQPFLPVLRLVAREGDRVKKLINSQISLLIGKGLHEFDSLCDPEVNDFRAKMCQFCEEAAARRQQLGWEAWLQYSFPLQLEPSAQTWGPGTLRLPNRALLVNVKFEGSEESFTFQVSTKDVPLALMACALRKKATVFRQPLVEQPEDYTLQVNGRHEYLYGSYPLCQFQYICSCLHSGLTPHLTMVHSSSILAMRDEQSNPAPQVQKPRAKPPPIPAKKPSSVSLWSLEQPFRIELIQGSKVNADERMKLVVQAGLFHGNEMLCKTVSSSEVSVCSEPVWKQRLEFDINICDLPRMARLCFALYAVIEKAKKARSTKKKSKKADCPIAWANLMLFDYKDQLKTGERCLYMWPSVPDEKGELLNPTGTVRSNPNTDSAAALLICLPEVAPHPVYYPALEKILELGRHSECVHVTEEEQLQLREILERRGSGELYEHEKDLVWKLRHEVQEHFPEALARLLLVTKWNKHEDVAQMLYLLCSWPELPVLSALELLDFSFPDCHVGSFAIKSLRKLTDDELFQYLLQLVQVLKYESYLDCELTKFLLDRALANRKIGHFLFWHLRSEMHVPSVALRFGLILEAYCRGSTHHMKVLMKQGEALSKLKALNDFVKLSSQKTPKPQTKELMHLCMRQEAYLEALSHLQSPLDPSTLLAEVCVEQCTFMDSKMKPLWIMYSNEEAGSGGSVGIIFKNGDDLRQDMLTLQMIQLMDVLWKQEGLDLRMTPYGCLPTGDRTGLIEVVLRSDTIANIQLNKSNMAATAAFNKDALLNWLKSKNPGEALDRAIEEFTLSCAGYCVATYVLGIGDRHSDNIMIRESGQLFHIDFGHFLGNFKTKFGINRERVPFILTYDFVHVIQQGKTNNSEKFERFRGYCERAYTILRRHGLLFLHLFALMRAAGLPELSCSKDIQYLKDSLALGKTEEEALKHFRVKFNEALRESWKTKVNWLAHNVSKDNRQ
Sequence of PIK3CG (human) (P48736 whole entry, looked up): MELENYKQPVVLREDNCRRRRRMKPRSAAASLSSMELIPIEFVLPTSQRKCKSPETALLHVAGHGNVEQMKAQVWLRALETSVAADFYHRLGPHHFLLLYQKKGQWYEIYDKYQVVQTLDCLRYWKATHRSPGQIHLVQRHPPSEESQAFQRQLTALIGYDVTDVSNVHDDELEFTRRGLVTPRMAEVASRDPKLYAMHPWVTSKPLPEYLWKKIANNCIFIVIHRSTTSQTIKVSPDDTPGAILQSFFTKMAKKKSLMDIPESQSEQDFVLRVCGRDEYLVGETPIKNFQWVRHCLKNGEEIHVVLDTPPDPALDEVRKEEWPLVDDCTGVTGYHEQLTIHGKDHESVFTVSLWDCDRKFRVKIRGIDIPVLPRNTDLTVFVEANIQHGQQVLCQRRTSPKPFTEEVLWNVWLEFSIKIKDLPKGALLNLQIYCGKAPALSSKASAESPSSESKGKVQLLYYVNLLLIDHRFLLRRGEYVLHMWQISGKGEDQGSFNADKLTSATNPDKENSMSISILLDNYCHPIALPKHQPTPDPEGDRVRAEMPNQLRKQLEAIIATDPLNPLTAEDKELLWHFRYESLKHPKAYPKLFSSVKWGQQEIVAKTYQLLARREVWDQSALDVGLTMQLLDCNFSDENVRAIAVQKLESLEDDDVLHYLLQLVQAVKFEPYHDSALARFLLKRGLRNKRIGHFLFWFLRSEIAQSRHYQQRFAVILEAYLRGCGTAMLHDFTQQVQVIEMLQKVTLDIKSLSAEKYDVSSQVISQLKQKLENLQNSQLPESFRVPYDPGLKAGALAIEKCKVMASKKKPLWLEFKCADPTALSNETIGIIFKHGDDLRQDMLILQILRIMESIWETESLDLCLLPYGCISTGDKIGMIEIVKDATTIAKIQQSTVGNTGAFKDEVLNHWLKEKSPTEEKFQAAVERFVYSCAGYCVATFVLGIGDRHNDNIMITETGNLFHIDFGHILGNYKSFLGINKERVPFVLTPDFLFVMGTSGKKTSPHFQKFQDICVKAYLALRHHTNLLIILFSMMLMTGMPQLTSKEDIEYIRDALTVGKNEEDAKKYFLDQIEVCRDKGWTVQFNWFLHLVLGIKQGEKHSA

| IC50 [1] | IC50 [2] | IC50 [3] | SMILES |
| --- | --- | --- | --- |
| 105 nM |  |  | CC(Nc1ncnc2[nH]cc(C#N)c12)c1cc2cccn2c(=O)n1-c1ccccc1 (configuration not stated) |
| 231 nM | 26 nM |  | N#Cc1n[nH]c2ncnc(N3CCC[C@H]3c3nn4cccc4c(=O)n3-c3ccccc3)c12 |
| 38 nM | 21 nM | 256 nM | C[S@+]([O-])c1c[nH]c2ncnc(N3C[C@@H](C#N)C[C@H]3c3nn4ccc(Cl)c4c(=O)n3-c3ccccc3)c12 |
|  | 300 nM |  | C=Cc1ccn2nc([C@@H]3CCN3c3ncnc4[nH]cc(C#N)c34)n(-c3ccccc3)c(=O)c12 |
| 16 nM | 64 nM |  | C[S@@+]([O-])c1c[nH]c2ncnc(N3C[C@@H](C#N)C[C@H]3c3nn4ccc(Cl)c4c(=O)n3-c3ccccc3)c12 |
|  | 93 nM |  | N#Cc1c[nH]c2ncnc(N3CC[C@H]3c3nn4cccc4c(=O)n3-c3ccccc3)c12 |
| 40 nM | 6 nM |  | Nc1nc(N2CCC[C@H]2c2nn3cccc3c(=O)n2-c2ccccc2)c2nc[nH]c2n1 |
| 15 nM | 1 nM | 47 nM | COc1ncc(-c2n[nH]c3ncnc(N4CCC[C@H]4c4nn5ccc(Cl)c5c(=O)n4-c4ccccc4)c23)cn1 |
| 25 nM | 40 nM |  | Nc1ncc([N+](=O)O)c(N2CC[C@H]2c2nn3ccc(Cl)c3c(=O)n2-c2ccccc2)n1 |
| 89 nM | 5 nM |  | COc1cccc(-n2c([C@@H]3CCCN3c3ncnc4[nH]cc(C#N)c34)nn3cccc3c2=O)c1 |
|  | 136 nM |  | N#Cc1c(N)ncnc1OCc1cc2ncc(Cl)n2c(=O)n1-c1ccccc1 |
| 18 nM | 12 nM | 1580 nM | C[C@H]1CN(c2nc(N)nc3c2C(=O)CCN3)[C@@H]1c1nn2ccc(Cl)c2c(=O)n1-c1ccccn1 |
| 10 nM | 38 nM |  | Nc1ncc(C(=O)C(F)F)c(N2CC[C@H]2c2nn3ccc(Cl)c3c(=O)n2-c2ccccc2)n1 |
| 287 nM | 156 nM |  | O=c1c2c(Br)ccn2nc([C@@H]2CCN2c2ncnc3[nH]cnc23)n1-c1ccccc1 |

Source: the Kinase Knowledgebase extract (Sharma et al. 2016)
